The results in this text go back to patent US7507741B2, “Heterocyclic compounds” (SmithKline Beecham Corporation, priority 1999, dated 2009).

For one experiment, the system named is N87 cells. The experiment in a line: Methylene blue growth inhibition assay, N87. It is filed as cell-based. To be noted: 72 h; human gastric tumor cell line, 3 days. How it is done:
(§1) Human breast (BT474), head and neck (HN5) and gastric tumor (N87) cell lines were cultured in low glucose DMEM (Life Technologies 12320-032) containing 10% fetal bovine serum (FBS) at 37° C. in a humidified 10% CO2, 90% air incubator. The SV40 transformed human mammary epithelial cell line HB4a was transfected with either human H-ras cDNA (HB4a r4.2) or the human c-erbB2 cDNA (HB4a c5.2). The HB4a clones were cultured in RPMI containing 10% FBS, insulin (5 μg/ml), hydrocortisone (5 μg/ml), supplemented with the selection agent hygromycin B (50 μg/ml). Cells were harvested using trypsin/EDTA, counted using a haemocytometer, and plated in […] of the appropriate media, at the following densities, in a 96-well tissue culture plate (Falcon 3075): BT474 10,000 cells/well, HN5 3,000 cells/well, N87 10,000 cells/well, HB4a c5.2 3,000 cells/well, HB4a r4.2 3,000 cells/well. The next day, compounds were diluted in DMEM containing […] gentamicin, at twice the final required concentration, from 10 mM stock solutions in DMSO. […] of these dilutions were added to the […] of media currently on the cell plates. Medium containing 0.6% DMSO was added to control wells. Compounds diluted in DMEM were added to all cell lines, including the HB4a r4.2 and HB4a c5.2 cell lines. The final concentration of DMSO in all wells was 0.3%. Cells were incubated at 37° C., 10% CO2 for 3 days. Medium was removed by aspiration. Cell biomass was estimated by staining cells with 100 μl per well methylene blue (Sigma M9140, 0.5% in 50:50 ethanol:water), and incubation at room temperature for at least 30 minutes. Stain was removed, and the plates rinsed under a gentle stream of water, and air-dried. To release stain from the cells 100 μl of solubilization solution was added (1% N-lauroyl sarcosine, Sodium salt, Sigma L5125, in PBS), and plates were shaken gently for about 30 minutes. Optical density at 620 nm was measured on a microplate reader. Percent inhibition of cell growth was calculated relative to vehicle treated control wells. Concentration of compound that inhibits 50% of cell growth (IC50) was interpolated using nonlinear regression (Levenberg-Marquardt) and the equation, y=Vmax*(1−(x/(K+x)))+Y2, where “K” was equal to the IC50.

The subject of the next experiment is BT474 cells. The experiment in a line: Methylene blue growth inhibition assay, BT474. Type of experiment: cell-based. To be noted: BT-474, 72 h; human breast tumor cell line, 3 days. As for the experimental part: as §1
In a further experiment the target is T1, c-erbB-2 (Homo sapiens, UniProt P04626).
T1 construct: baculovirus expressed, recombinant constructs of the intracellular domains of c-erbB-2 and c-erbB-4; made in house
The experiment in a line: Substrate phosphorylation assay, c-erbB-2. Type of experiment: biochemical. The following applies: recombinant intracellular domain, baculovirus expressed; ATP and peptide at Km; read-out: ErbB2 IC50. How it is done:
(§2) The substrate phosphorylation assays use baculovirus expressed, recombinant constructs of the intracellular domains of c-erbB-2 and c-erbB-4 that are constitutively active and EGFr isolated from solubilised A431 cell membranes. […] The reaction is stopped by the addition of EDTA (final concentration 0.15 mM) and a sample is transferred to a streptavidin-coated 96-well plate. The plate is washed and level of phosphotyrosine on the peptide is determined using a Europium-labelled antiphosphotyrosine antibody and quantified with a time-resolved fluorescence technique. The results are shown in Table 1 as the IC50 value in Micromolar ranges.

The next experiment concerns HN5 cells. The experiment in a line: Methylene blue growth inhibition assay, HN5. It is filed as cell-based. The following applies: HN5, 72 h; human head and neck tumor cell line, 3 days. How it is done:
as §1

A further experiment concerns the target T2, c-erbB-4 (Homo sapiens, UniProt Q15303).
T2 construct: baculovirus expressed, recombinant constructs of the intracellular domains of c-erbB-2 and c-erbB-4; made in house
The experiment is described as follows: Substrate phosphorylation assay, c-erbB-4. Type of experiment: biochemical. To be noted: recombinant intracellular domain, baculovirus expressed; ATP and peptide at Km; read-out: ErbB4 IC50. How it is done: as §2, with “membranes. The method measures the ability of the isolated enzymes to catalyse the transfer of the γ-phosphate from ATP onto tyrosine residues in a biotinylated synthetic peptide (Biotin-[…].” for “membranes.”

For experiment [1], the target named is T3, EGFr isolated from solubilised A431 cell membranes (Homo sapiens, UniProt P00533).
T3 construct: EGFr isolated from solubilised A431 cell membranes; endogenous in cells; host or cells: A431 cell membranes, solubilised
The experiment is described as follows: Substrate phosphorylation assay, EGFr. Type of experiment: biochemical. To be noted: ATP and peptide at Km. As for the experimental part: The substrate phosphorylation assays use baculovirus expressed, recombinant constructs of the intracellular domains of c-erbB-2 and c-erbB-4 that are constitutively active and EGFr isolated from solubilised A431 cell membranes. […] The reaction is stopped by the addition of EDTA (final concentration 0.15 mM) and a sample is transferred to a streptavidin-coated 96-well plate. The plate is washed and level of phosphotyrosine on the peptide is determined using a Europium-labelled antiphosphotyrosine antibody and quantified with a time-resolved fluorescence technique.

The next experiment relates to HB4a c5.2 cells. The experiment in a line: Methylene blue growth inhibition assay, HB4a c5.2. Type of experiment: cell-based. To be noted: HB4a-C5.2, 72 h; human mammary epithelial line transfected with human c-erbB2 cDNA, 3 days; read-out: HB4a c5.2 IC50 (cell growth). As for the experimental part: as §1

Each structure is given as a SMILES string.

T1 sequence (P04626 676-1255 limits assumed): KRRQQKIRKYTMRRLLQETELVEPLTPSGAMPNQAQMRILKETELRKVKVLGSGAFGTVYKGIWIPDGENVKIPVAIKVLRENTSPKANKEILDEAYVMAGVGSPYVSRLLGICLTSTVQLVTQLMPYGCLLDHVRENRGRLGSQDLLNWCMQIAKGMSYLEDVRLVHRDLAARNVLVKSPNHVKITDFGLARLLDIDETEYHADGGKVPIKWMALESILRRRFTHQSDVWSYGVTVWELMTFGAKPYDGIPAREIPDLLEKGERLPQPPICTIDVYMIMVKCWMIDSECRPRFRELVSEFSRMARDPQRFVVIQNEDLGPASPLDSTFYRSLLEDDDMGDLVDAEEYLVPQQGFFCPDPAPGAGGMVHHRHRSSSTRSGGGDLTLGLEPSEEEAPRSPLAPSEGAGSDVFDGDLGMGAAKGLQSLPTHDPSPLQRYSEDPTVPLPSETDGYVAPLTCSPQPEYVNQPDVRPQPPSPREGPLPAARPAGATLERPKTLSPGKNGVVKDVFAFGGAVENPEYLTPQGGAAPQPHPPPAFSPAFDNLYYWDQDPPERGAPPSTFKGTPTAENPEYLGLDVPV
T2 sequence (Q15303 676-1308 limits assumed): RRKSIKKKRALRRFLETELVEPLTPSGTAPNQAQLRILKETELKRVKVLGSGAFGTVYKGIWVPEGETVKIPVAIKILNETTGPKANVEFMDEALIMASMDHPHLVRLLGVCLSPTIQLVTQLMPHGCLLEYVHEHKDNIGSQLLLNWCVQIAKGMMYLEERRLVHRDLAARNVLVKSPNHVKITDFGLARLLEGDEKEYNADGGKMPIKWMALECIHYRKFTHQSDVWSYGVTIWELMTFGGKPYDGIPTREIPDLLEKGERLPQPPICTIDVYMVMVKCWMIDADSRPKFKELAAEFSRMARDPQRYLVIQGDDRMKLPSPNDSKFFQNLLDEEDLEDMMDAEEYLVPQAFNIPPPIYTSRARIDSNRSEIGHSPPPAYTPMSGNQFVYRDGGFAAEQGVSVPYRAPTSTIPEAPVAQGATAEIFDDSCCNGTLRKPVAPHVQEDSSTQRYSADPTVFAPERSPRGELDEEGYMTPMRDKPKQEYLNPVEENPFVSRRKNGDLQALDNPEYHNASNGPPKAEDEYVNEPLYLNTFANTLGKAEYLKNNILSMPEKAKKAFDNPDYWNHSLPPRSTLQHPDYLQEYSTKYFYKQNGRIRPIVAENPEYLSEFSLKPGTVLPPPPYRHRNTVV
T3 sequence (P00533 25-1210): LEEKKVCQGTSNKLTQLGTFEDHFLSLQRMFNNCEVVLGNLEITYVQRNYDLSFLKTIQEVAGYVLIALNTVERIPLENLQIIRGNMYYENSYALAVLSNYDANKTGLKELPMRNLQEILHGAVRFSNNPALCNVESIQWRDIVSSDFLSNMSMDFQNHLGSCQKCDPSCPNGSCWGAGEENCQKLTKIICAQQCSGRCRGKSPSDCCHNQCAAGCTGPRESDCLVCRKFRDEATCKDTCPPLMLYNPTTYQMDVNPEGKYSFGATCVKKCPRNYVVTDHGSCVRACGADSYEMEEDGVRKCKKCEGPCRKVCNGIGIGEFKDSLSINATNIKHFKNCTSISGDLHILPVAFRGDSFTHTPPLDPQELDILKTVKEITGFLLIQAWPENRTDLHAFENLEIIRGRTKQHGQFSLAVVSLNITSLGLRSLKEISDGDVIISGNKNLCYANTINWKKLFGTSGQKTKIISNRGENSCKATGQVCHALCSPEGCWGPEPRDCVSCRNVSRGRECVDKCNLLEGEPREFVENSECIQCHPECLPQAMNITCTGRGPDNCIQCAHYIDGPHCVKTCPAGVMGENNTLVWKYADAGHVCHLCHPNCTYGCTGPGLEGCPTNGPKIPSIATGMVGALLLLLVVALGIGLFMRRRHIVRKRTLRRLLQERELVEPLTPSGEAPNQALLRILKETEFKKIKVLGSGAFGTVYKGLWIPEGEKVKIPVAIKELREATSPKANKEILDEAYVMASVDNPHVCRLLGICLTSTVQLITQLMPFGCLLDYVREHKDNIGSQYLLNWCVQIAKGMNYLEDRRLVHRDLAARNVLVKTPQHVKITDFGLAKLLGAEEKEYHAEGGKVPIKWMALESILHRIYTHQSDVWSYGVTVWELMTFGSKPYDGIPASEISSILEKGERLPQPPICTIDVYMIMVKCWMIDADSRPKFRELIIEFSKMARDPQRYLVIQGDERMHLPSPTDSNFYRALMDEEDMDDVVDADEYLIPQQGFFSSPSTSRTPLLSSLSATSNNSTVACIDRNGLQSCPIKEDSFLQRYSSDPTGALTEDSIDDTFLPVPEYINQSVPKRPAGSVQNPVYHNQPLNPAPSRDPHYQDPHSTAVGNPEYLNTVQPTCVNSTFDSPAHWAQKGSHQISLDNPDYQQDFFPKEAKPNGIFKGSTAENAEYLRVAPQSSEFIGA

By IC50 is commonly meant the concentration that gives 50% inhibition. Consider `Cn1ccnc1S(=O)(=O)CCNCc1ccc(-c2ccc3ncnc(Nc4ccc(OCc5cccc(F)c5)c(Cl)c4)c3c2)o1` [Example 2, (4-(3-Fluorobenzyloxy)-3-chlorophenyl)-(6-(2-((2-(2-N-methylimidazolyl)-sulphonyl-ethylamino)-methyl)-furan-2-yl)-quinazolin-4-yl)-amine], for which the IC50 in the experiment with N87 cells was 100 to 1000 nM; in the experiment with BT474 cells it was 100 to 1000 nM; at c-erbB-2 it was less than 100 nM; in the experiment with HN5 cells, 100 to 1000 nM; on c-erbB-4, 100 to 1000 nM; in experiment [1] it was less than 100 nM. The IC50 with HB4a c5.2 cells is 100 to 1000 nM.
In the case of `O=S(=O)(CCOCc1ccc(-c2ccc3ncnc(Nc4ccc(OCc5cccc(F)c5)c(Cl)c4)c3c2)o1)c1ccccc1` [Example 3, N-{3-chloro-4-[(3-fluorobenzyl)oxy]phenyl}-6-(5-{[2-(phenylsulfonyl)ethoxy]methyl}-2-furyl)-4-quinazolinamine], the IC50 was 100 to 1000 nM in the experiment with N87 cells; 100 to 1000 nM in the experiment on BT474 cells; less than 100 nM on c-erbB-2; 100 to 1000 nM in the experiment with HN5 cells; 1000 to 10000 nM on c-erbB-4; less than 100 nM in experiment [1]. The IC50 with HB4a c5.2 cells is 100 to 1000 nM.
Turning to `O=S(=O)(CCNCc1ccc(-c2ccc3ncnc(Nc4ccc(OCc5cccc(F)c5)c(Cl)c4)c3c2)o1)c1ccccn1` [Example 5], the IC50 with N87 cells was 100 to 1000 nM; with BT474 cells, 1000 to 10000 nM; on c-erbB-2, less than 100 nM; in the experiment on HN5 cells, 100 to 1000 nM; at c-erbB-4 it was 1000 to 10000 nM; in experiment [1], less than 100 nM. Besides, the IC50 in the experiment on HB4a c5.2 cells was in the range of 1000 to 10000 nM.
As to `CCCS(=O)(=O)CCNCc1ccc(-c2cc3c(Nc4ccc(OCc5cccc(F)c5)cc4)ncnc3cn2)o1` [Example 6], the IC50 is 100 to 1000 nM with N87 cells; 100 to 1000 nM with BT474 cells; less than 100 nM on c-erbB-2; 100 to 1000 nM with HN5 cells; 1000 to 10000 nM on c-erbB-4; less than 100 nM in experiment [1]. Also, in the experiment on HB4a c5.2 cells, the IC50 lay in the range of 100 to 1000 nM.
Take `CCCS(=O)(=O)CCNCc1ccc(-c2ccc3ncnc(Nc4ccc(OCc5cccc(F)c5)c(Cl)c4)c3c2)o1` [Example 7]: the IC50 in the experiment with N87 cells is 1000 to 10000 nM; in the experiment on BT474 cells, 1000 to 10000 nM; on c-erbB-2, less than 100 nM; in the experiment with HN5 cells, 1000 to 10000 nM; on c-erbB-4, 100 to 1000 nM; in experiment [1], less than 100 nM. For the same compound, the half-inhibitory concentration (IC50) in the experiment with HB4a c5.2 cells is 1000 to 10000 nM.
Regarding `CS(=O)(=O)CCNCCCc1ccc(-c2ccc3ncnc(Nc4ccc(OCc5ccccc5)c(Cl)c4)c3c2)o1` [Example 8], the IC50 is 100 to 1000 nM in the experiment with N87 cells; 100 to 1000 nM in the experiment on BT474 cells; less than 100 nM at c-erbB-2; 100 to 1000 nM with HN5 cells; 1000 to 10000 nM at c-erbB-4; less than 100 nM in experiment [1]. For the same compound, in the experiment on HB4a c5.2 cells, the IC50 lay within 100 to 1000 nM.
In the case of `CS(=O)(=O)CCOCc1ccc(-c2ccc3ncnc(Nc4ccc(OCc5cccc(F)c5)c(Cl)c4)c3c2)o1` [Example 13, N-{3-chloro-4-[(3-fluorobenzyl)oxy]phenyl}-6-(5-{[2-(methylsulfonyl)ethoxy]methyl}-2-furyl)-4-quinazolinamine], the IC50 in the experiment on N87 cells was 100 to 1000 nM; with BT474 cells, 100 to 1000 nM; at c-erbB-2, less than 100 nM; with HN5 cells, 100 to 1000 nM; at c-erbB-4, 100 to 1000 nM; in experiment [1], less than 100 nM. For the same compound, the IC50 in the experiment on HB4a c5.2 cells was in the range of 100 to 1000 nM.
In the case of `C=CS(=O)(=O)CCOCc1ccc(-c2ccc3ncnc(Nc4ccc(OCc5cccc(F)c5)c(Cl)c4)c3c2)o1` [Example 14, N-{3-chloro-4-[(3-fluorobenzyl)oxy]phenyl}-6-(5-{[2-(vinylsulfonyl)ethoxy]methyl}-2-furyl)-4-quinazolinamine], the IC50 in the experiment on N87 cells is 1000 to 10000 nM; in the experiment on BT474 cells it was 1000 to 10000 nM; on c-erbB-2, less than 100 nM; with HN5 cells, 1000 to 10000 nM; at c-erbB-4, 100 to 1000 nM; in experiment [1], less than 100 nM. Also, the IC50 with HB4a c5.2 cells is 1000 to 10000 nM.
On to `CS(=O)(=O)CCN(CC#N)Cc1ccc(-c2ccc3ncnc(Nc4ccc(OCc5cccc(F)c5)c(Cl)c4)c3c2)o1` [Example 15, 2-{{[5-(4-{3-chloro-4-[(3-fluorobenzyl)oxy]anilino}-6-quinazolinyl)-2-furyl]methyl}[2-(methylsulfonyl)ethyl]amino}acetonitrile], for which the half-maximal inhibitory concentration (IC50) in the experiment on N87 cells is 100 to 1000 nM; in the experiment on BT474 cells it was less than 100 nM; at c-erbB-2 it was less than 100 nM; in the experiment on HN5 cells, less than 100 nM; at c-erbB-4, 100 to 1000 nM; in experiment [1], less than 100 nM. Moreover, the IC50 in the experiment with HB4a c5.2 cells was 100 to 1000 nM.
Consider `CS(=O)(=O)CCN(Cc1ccccc1)Cc1ccc(-c2ccc3ncnc(Nc4ccc(OCc5cccc(F)c5)c(Cl)c4)c3c2)o1` [Example 16, 6-[5-({benzyl[2-(methylsulfonyl)ethyl]amino}methyl)-2-furyl]-N-{3-chloro-4-[(3-fluorobenzyl)oxy]phenyl}-4-quinazolinamine], for which the IC50 was in the range of 100 to 1000 nM with N87 cells; 100 to 1000 nM with BT474 cells; 100 to 1000 nM on c-erbB-2; 1000 to 10000 nM in the experiment on HN5 cells; 100 to 1000 nM at c-erbB-4; 1000 to 10000 nM in the experiment on HB4a c5.2 cells.
For the compound `CCN(CCS(C)(=O)=O)Cc1ccc(-c2ccc3ncnc(Nc4ccc(OCc5cccc(F)c5)c(Cl)c4)c3c2)o1` [Example 17, N-{3-chloro-4-[(3-fluorobenzyl)oxy]phenyl}-6-[5-({ethyl[2-(methylsulfonyl)ethyl]amino}methyl)-2-furyl]-4-quinazolinamine], the IC50 is 100 to 1000 nM with N87 cells; 100 to 1000 nM in the experiment with BT474 cells; less than 100 nM at c-erbB-2; 100 to 1000 nM with HN5 cells; 100 to 1000 nM on c-erbB-4; less than 100 nM in experiment [1]. The IC50 in the experiment with HB4a c5.2 cells is 100 to 1000 nM.
Take `CCCN(CCS(C)(=O)=O)Cc1ccc(-c2ccc3ncnc(Nc4ccc(OCc5cccc(F)c5)c(Cl)c4)c3c2)o1` [Example 18, N-{3-chloro-4-[(3-fluorobenzyl)oxy]phenyl}-6-(5-{[[2-(methylsulfonyl)ethyl](propyl)amino]methyl}-2-furyl)-4-quinazolinamine]: the IC50 in the experiment with N87 cells was 100 to 1000 nM; in the experiment on BT474 cells it was 100 to 1000 nM; at c-erbB-2, less than 100 nM; in the experiment on HN5 cells it was 100 to 1000 nM; on c-erbB-4 it was less than 100 nM; in experiment [1], less than 100 nM. The IC50 with HB4a c5.2 cells is 100 to 1000 nM.
For the compound `CC(C)S(=O)(=O)CCNCc1ccc(-c2ccc3ncnc(Nc4ccc(OCc5cccc(F)c5)c(Cl)c4)c3c2)o1` [Example 19], the IC50 in the experiment with N87 cells was 100 to 1000 nM; in the experiment with BT474 cells it was 100 to 1000 nM; at c-erbB-2, less than 100 nM; on c-erbB-4 it was 100 to 1000 nM; in the experiment with HB4a c5.2 cells, 100 to 1000 nM.
